Measured values from patent US20250313533A1, “QUINOLINE CARBOXYLIC ACID ESTER COMPOUND AND PREPARATION METHOD AND USE THEREOF” (priority 2019, published 2025).

What was measured:
[1] = test system: pathogenic bacteria causing bacterial angular leaf spot in cucumbers; test: In vitro bactericidal activity, bacterial angular leaf spot in cucumbers; type: cell-based, pseudomonas; details: read-out: inhibitory rate; for inhibition at 1 ppm: dosage 1 ppm; for inhibition at 5 ppm: dosage 5 ppm
[2] = test system: pathogenic bacteria causing bacterial wilt in tobacco; test: whole plant or invertebrate; type: cell-based, ralstonia; details: read-out: inhibitory rate
[3] = test system: pathogenic bacteria causing black shank in potatoes; test: In vitro bactericidal activity, black shank in potatoes; type: cell-based; details: read-out: inhibitory rate; for inhibition at 1 ppm: dosage 1 ppm; for inhibition at 5 ppm: dosage 5 ppm
[4] = test system: pathogenic bacteria causing stem rot in sweet potatoes; test: In vitro bactericidal activity, stem rot in sweet potatoes; type: cell-based, dikia; details: read-out: inhibitory rate; for inhibition at 1 ppm: dosage 1 ppm; for inhibition at 5 ppm: dosage 5 ppm
[5] = test system: pathogenic bacteria causing bacterial blight in rice; test: whole plant or invertebrate; type: cell-based, xanthomonas; details: read-out: inhibitory rate
[6] = test system: pathogenic bacteria causing fruit blotch in watermelons; test: In vitro bactericidal activity, fruit blotch in watermelons; type: cell-based, acidovorax; details: read-out: inhibitory rate; for inhibition at 1 ppm: dosage 1 ppm; for inhibition at 5 ppm: dosage 5 ppm
[7] = test system: pathogenic bacteria causing black rot in Chinese cabbages; test: In vitro bactericidal activity, black rot in Chinese cabbages; type: cell-based, xanthomonas; details: Xanthomonas, read-out: inhibitory rate; for inhibition at 1 ppm: dosage 1 ppm; for inhibition at 5 ppm: dosage 5 ppm
[8] = test system: pathogenic bacteria causing bacterial wilt in cassava; test: organism not typed; type: cell-based; details: read-out: inhibitory rate
[9] = test system: pathogenic bacteria causing fire blight in pears; test: In vitro bactericidal activity, fire blight in pears; type: cell-based, erwinia; details: Erwinia, read-out: inhibitory rate; for inhibition at 1 ppm: dosage 1 ppm; for inhibition at 5 ppm: dosage 5 ppm
black shank in potatoes = test: Living crops in vivo protective activity, potatoes (root irrigation); details: Solanum tuberosum, read-out: efficacy against black shank in potatoes; for pest or weed control at 5 ppm: dosage 5 ppm; for pest or weed control at 10 ppm: dosage 10 ppm
Experimental: Root irrigation was carried out on the potatoes for tests according to the designed concentration of the agents. The dosage for each plant was 200 mL and was kept consistent (also for the control). The black shank bacteria were inoculated on the second day after the application. The results were investigated according to the disease condition.

[10] = test system: indoor potted cucumber seedlings; test: Effect of improving growth and development of crops; type: in vivo; parameters: Rate of growth rate increase (%): concentration or dose not given beside the values; details: versus blank control; for Rate of chlorophyll content increase (%) / Rate of leaf area increase (%): 14 days after application; for Rate of growth rate increase (%): plant height 14 days after application; for Rate of leaf area increase (%): second leaf
How it was run: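 Growth effects were scored as percent increases in height growth rate, second-leaf area and chlorophyll (SPAD meter), comparing values taken before and 14 days after application.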

cucumber seedlings = test: Safety for plant growth after application; type: in vivo; details: dosage 200 ppm
How it was run: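 Compound applied to indoor cucumber seedlings in pots. Growth then scored: height increase rate, leaf chlorophyll, leaf area.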

[11] = test system: bacterial wilt in tobacco; test: whole plant or invertebrate; details: Nicotiana tabacum, read-out: efficacy against bacterial wilt in tobacco
[12] = test system: stem rot in sweet potatoes; test: whole plant or invertebrate; details: read-out: efficacy against stem rot in sweet potatoes
bacterial blight in rice = test: whole plant or invertebrate; details: Oryza sativa, read-out: efficacy against bacterial blight in rice
[13] = test system: fruit blotch in watermelons; test: whole plant or invertebrate; details: read-out: efficacy against fruit blotch in watermelons
[14] = test system: soft rot in Chinese cabbages; test: whole plant or invertebrate; details: 48 h, read-out: efficacy against soft rot in Chinese cabbages

| SMILES | inhibition at 1 ppm [1] [%] | inhibition at 5 ppm [1] [%] | inhibition at 1 ppm [2] [%] | inhibition at 5 ppm [2] [%] | inhibition at 1 ppm [3] [%] | inhibition at 5 ppm [3] [%] | inhibition at 1 ppm [4] [%] | inhibition at 5 ppm [4] [%] | inhibition at 1 ppm [5] [%] | inhibition at 5 ppm [5] [%] | inhibition at 1 ppm [6] [%] | inhibition at 5 ppm [6] [%] | inhibition at 1 ppm [7] [%] | inhibition at 5 ppm [7] [%] | inhibition at 1 ppm [8] [%] | inhibition at 5 ppm [8] [%] | inhibition at 1 ppm [9] [%] | inhibition at 5 ppm [9] [%] | pest or weed control at 5 ppm (black shank in potatoes) [%] | pest or weed control at 10 ppm (black shank in potatoes) [%] | also measured |
| --- | --- | --- | --- | --- | --- | --- | --- | --- | --- | --- | --- | --- | --- | --- | --- | --- | --- | --- | --- | --- | --- |
| CCN(CC)c1cc2c(cc1F)c(=O)c(C(=O)OCCOC)cn2C1CC1 [Compound 420, 2-methoxyethyl 1-cyclopropyl-7-(diethylamino)-6-fluoro-4-oxo-1,4-dihydroquinoline-3-carboxylate] | ≥ 90 | ≥ 90 | ≥ 90 | ≥ 90 | ≥ 90 | ≥ 90 | ≥ 90 | ≥ 90 | ≥ 90 | ≥ 90 | ≥ 90 | ≥ 90 | ≥ 90 | ≥ 90 | ≥ 90 | ≥ 90 | ≥ 90 | ≥ 90 | ≥ 90 | ≥ 90 | Rate of chlorophyll content increase (%) [10]: 9%; Rate of growth rate increase (%) [10]: 9%; Rate of leaf area increase (%) [10]: 12%; safety for plant growth (discoloration, necrosis, wilt, malformation) (cucumber seedlings): safe for plant growth; pest or weed control at 5 ppm [11]: ≥ 90%; pest or weed control at 10 ppm [11]: ≥ 90%; pest or weed control at 5 ppm [12]: ≥ 90%; pest or weed control at 10 ppm [12]: ≥ 90%; pest or weed control at 5 ppm (bacterial blight in rice): ≥ 90%; pest or weed control at 10 ppm (bacterial blight in rice): ≥ 90%; pest or weed control at 5 ppm [13]: ≥ 90%; pest or weed control at 10 ppm [13]: ≥ 90%; pest or weed control at 5 ppm [14]: ≥ 90%; pest or weed control at 10 ppm [14]: ≥ 90% |
| O=C(OCCO)c1cn(C2CC2)c2cc(N3CCOCC3)c(F)cc2c1=O [Compound 425] | ≥ 90 | ≥ 90 | ≥ 90 | ≥ 90 | ≥ 90 | ≥ 90 | ≥ 90 | ≥ 90 | ≥ 90 | ≥ 90 | ≥ 90 | ≥ 90 | ≥ 90 | ≥ 90 | ≥ 90 | ≥ 90 | ≥ 90 | ≥ 90 | ≥ 90 | ≥ 90 | Rate of chlorophyll content increase (%) [10]: 13%; Rate of growth rate increase (%) [10]: 10%; Rate of leaf area increase (%) [10]: 11%; safety for plant growth (discoloration, necrosis, wilt, malformation) (cucumber seedlings): safe for plant growth; pest or weed control at 5 ppm [11]: ≥ 90%; pest or weed control at 10 ppm [11]: ≥ 90%; pest or weed control at 5 ppm [12]: ≥ 90%; pest or weed control at 10 ppm [12]: ≥ 90%; pest or weed control at 5 ppm (bacterial blight in rice): ≥ 90%; pest or weed control at 10 ppm (bacterial blight in rice): ≥ 90%; pest or weed control at 5 ppm [13]: ≥ 90%; pest or weed control at 10 ppm [13]: ≥ 90%; pest or weed control at 5 ppm [14]: ≥ 90%; pest or weed control at 10 ppm [14]: ≥ 90% |
| COCCOC(=O)c1cn(C2CC2)c2cc(N3CCOCC3)c(F)cc2c1=O [Compound 426, 2-methoxyethyl 1-cyclopropyl-6-fluoro-7-morpholinyl-4-oxo-1,4-dihydroquinoline-3-carboxylate] | ≥ 90 | ≥ 90 | ≥ 90 | ≥ 90 | ≥ 90 | ≥ 90 | ≥ 90 | ≥ 90 | ≥ 90 | ≥ 90 | ≥ 90 | ≥ 90 | ≥ 90 | ≥ 90 | ≥ 90 | ≥ 90 | ≥ 90 | ≥ 90 | ≥ 90 | ≥ 90 | Rate of chlorophyll content increase (%) [10]: 10%; Rate of growth rate increase (%) [10]: 9%; Rate of leaf area increase (%) [10]: 11%; safety for plant growth (discoloration, necrosis, wilt, malformation) (cucumber seedlings): safe for plant growth; pest or weed control at 5 ppm [11]: ≥ 90%; pest or weed control at 10 ppm [11]: ≥ 90%; pest or weed control at 5 ppm [12]: ≥ 90%; pest or weed control at 10 ppm [12]: ≥ 90%; pest or weed control at 5 ppm (bacterial blight in rice): ≥ 90%; pest or weed control at 10 ppm (bacterial blight in rice): ≥ 90%; pest or weed control at 5 ppm [13]: ≥ 90%; pest or weed control at 10 ppm [13]: ≥ 90%; pest or weed control at 5 ppm [14]: ≥ 90%; pest or weed control at 10 ppm [14]: ≥ 90% |
| O=C(OCCO)c1cn(C2CC2)c2cc(N3CCCCC3)c(F)cc2c1=O [Compound 431] | ≥ 90 | ≥ 90 | ≥ 90 | ≥ 90 | ≥ 90 | ≥ 90 | ≥ 90 | ≥ 90 | ≥ 90 | ≥ 90 | ≥ 90 | ≥ 90 | ≥ 90 | ≥ 90 | ≥ 90 | ≥ 90 | ≥ 90 | ≥ 90 | ≥ 90 | ≥ 90 | Rate of chlorophyll content increase (%) [10]: 15%; Rate of growth rate increase (%) [10]: 12%; Rate of leaf area increase (%) [10]: 11%; safety for plant growth (discoloration, necrosis, wilt, malformation) (cucumber seedlings): safe for plant growth; pest or weed control at 5 ppm [11]: ≥ 90%; pest or weed control at 10 ppm [11]: ≥ 90%; pest or weed control at 5 ppm [12]: ≥ 90%; pest or weed control at 10 ppm [12]: ≥ 90%; pest or weed control at 5 ppm (bacterial blight in rice): ≥ 90%; pest or weed control at 10 ppm (bacterial blight in rice): ≥ 90%; pest or weed control at 5 ppm [13]: ≥ 90%; pest or weed control at 10 ppm [13]: ≥ 90%; pest or weed control at 5 ppm [14]: ≥ 90%; pest or weed control at 10 ppm [14]: ≥ 90% |
